Measurements taken from US20060116407A1, “Amide derivatives” (priority 2004, published 2006).

Assays:
HER-2 = biological target: T1, HER-2 (Homo sapiens, UniProt P04626); assay: Inhibition of HER-2 phosphorylation in Calu-3 tumor cell line; format: cell-based; settings: Calu-3 cells, compound 1 μM, 16 h, pY 1248 in HER-2, percentage of DMSO control; for inhibition at 1 µM: read-out: Percent inhibition of HER2-phosphorylation (compound concentration 1 μM)
T1 construct: endogenous in cells; host or cells: Calu-3 (ATCC HTB-55)
T1 sequence (P04626 23-1255): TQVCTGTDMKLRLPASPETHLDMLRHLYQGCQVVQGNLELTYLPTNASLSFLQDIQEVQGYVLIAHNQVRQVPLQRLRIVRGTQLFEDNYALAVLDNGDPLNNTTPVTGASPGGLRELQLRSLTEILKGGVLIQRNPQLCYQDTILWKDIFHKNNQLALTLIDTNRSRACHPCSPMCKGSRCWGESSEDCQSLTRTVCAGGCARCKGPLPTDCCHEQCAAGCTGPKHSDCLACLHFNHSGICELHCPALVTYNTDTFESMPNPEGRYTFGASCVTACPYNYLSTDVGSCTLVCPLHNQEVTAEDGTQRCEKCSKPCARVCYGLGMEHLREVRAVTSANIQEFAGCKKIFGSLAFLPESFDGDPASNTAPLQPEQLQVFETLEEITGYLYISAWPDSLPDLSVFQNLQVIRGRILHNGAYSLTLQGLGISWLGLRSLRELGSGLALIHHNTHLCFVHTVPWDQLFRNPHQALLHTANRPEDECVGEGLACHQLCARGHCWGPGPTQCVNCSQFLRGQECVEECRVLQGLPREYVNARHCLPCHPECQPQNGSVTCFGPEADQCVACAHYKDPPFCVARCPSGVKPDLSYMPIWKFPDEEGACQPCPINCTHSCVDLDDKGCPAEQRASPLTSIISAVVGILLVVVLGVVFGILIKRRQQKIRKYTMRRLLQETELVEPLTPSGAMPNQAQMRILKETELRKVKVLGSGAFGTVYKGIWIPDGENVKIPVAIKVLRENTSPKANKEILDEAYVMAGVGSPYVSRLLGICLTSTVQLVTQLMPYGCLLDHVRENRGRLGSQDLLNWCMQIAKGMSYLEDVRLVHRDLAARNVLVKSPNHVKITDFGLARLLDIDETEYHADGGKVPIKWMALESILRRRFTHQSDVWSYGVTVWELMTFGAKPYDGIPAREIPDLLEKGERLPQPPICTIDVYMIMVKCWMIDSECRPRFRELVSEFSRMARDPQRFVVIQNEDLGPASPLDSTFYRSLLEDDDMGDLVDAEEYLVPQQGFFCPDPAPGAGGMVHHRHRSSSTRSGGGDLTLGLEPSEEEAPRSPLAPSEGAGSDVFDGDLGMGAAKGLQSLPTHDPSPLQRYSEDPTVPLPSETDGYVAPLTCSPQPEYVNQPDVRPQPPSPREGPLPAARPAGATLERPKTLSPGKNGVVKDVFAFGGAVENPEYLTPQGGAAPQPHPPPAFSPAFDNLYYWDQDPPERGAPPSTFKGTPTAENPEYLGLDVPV
Experimental: Inhibition of HER-2 Phosphorylation in Calu-3 Tumor Cell Line
2×10^5 Calu-3 (ATTC HTB-55) cells per well were plated in a 12-well plate. After 4 days cells were starved for 16 h in Dulbecco's Modified Eagle Medium (DMEM)/0.5% Fetal Calf Serum (FCS)/1% Glutamine. During this 16 h period cells were incubated with a solution of the test compound in dimethylsulfoxide(DMSO), so that the final concentration of the compound is 1 μM and the final volume of DMSO is 0.5%. Afterwards cells were lysed in lyses buffer containing 1% Triton®X-100, 10% Glycerol, 1 mM Ethylene glycol-bis(2-aminoethylether)-N,N,N′,N′-tetraacetic acid (EGTA), 1.5 mM MgCl2, 150 mM NaCl, 50 mM 4-(2-hydroxyethyl)-1-piperazineethanesulfonic acid (HEPES) buffer pH 7.5, 1 mM Phenylmethylsulfonyl fluoride (PMSF), 10 ∥g/mL Aprotinin and […] Orthovanadate. Cell lysates were analyzed on a Sodium Dodecyl Sulfate Polyacrylamide Gel Electrophoresis (SDS PAGE) and after transfer to a nitrocellulose membrane detected with an antibody specifically recognizing the pY 1248 in HER-2. Inhibition of HER-2 phosphorylation is calculated as percentage of the control, which is treated with DMSO only.

HEK293 cells = assay: Viability assay of HEK293 cells (CellTiter-Glo); format: cell-based; settings: Homo sapiens, 168 h, 7 days, 3 μM to 0.00015 μM, luminescence
Experimental: Viability Assay of HEK293 Cells
A viability assay was performed using the CellTiter-Glo™ Luminescent Cell Viability Assay (see Promega Corporation's Technical Publication No. 288, pp. 1-11 [revised 2.04] which is hereby incorporated by reference in its entirety). This assay is a homogeneous method of determining the number of viable cells in culture based on quantitation of the ATP present, which signals the presence of metabolically active cells. The assay is designed for use with multiwell formats, making it ideal for automated high-throughput screening (HTS), cell proliferation and cytotoxicity assays. The homogeneous assay procedure involves adding a single reagent (containing luciferase, luciferan substrate, and buffer) directly to cells cultured in serum-supplemented medium. Cell washing, removal of medium and multiple pipetting steps are not required. The system detects as few as 15 cells/well in a 384-well format in 10 minutes after adding reagent and mixing.
The homogeneous “add-mix-measure” format results in cell lysis and generation of a luminescent signal proportional to the amount of ATP present. The amount of ATP is directly proportional to the number of cells present in culture. The above-referenced assay generates a “glow-type” luminescent signal, produced by the luciferase reaction, which has a half-life generally greater than five hours, depending on cell type and medium used. The extended half-life eliminates the need to use reagent injectors and provides flexibility for continuous or batch mode processing of multiple plates. The unique homogeneous format avoids errors that may be introduced by other ATP measurement methods that require multiple steps.
HEK293 cells (human embryonic kidney cell line transformed by Adenovirus 5 fragments, ATCC-No. CRL 1573) were cultivated in Dulbecco's Modified Eagle Medium (DMEM) (1×) liquid (high glucose) (which includes L-Alanyl-L-Glutamine [a stabilized a form of L-Glutamine], 4500 mg/L glucose, and 110 mg/L sodium pyruvate) from Invitrogen Corporation (Invitrogen Catalog Number 31966-021 [now 10569-010] which is hereby incorporated by reference in its entirety), 5% Fetal Calf Serum (FCS, Sigma Cat-No. F4135 (FBS) which is hereby incorporated by reference in its entirety), and 100 Units/ml penicillin/100 μg/ml streptomycin(=Pen/Strep from Invitrogen Cat. No. 15140 which is hereby incorporated by reference in its entirety). For the assay the cells were seeded in 384 well plates, 5000 cells per well, in the same medium. The next day the test compounds were added in various concentrations ranging from 3 μM to 0.00015 μM (10 concentrations, 1:3 diluted). After 7 days the above viability assay was performed in accordance with the following steps: • Step 1: The cell-plate was equilibrated to room temperature for approximately 30 minutes and than the assay reagent was added. • Step 2: The contents were carefully mixed for 15 minutes to induce cell lysis. • Step 3: After 45 minutes the luminescent signal was measured in Victor 2, (scanning multiwell spectrophotometer, Wallac). Details: 1st Day: • Medium: Dulbecco's Modified Eagle Medium (DMEM) (1×) liquid (high glucose) (which includes L-Alanyl-L-Glutamine [a stabilized a form/source of L-Glutamine], 4500 mg/L glucose, and 110 mg/L sodium pyruvate) from Invitrogen Corporation (Invitrogen Catalog Number 31966-021 [now 10569-010]), 5% Fetal Calf Serum (FCS, Sigma Cat-No. F4135 (FBS)), and Pen/Strep (Invitrogen Cat. No. 15140). • HEK293 (ATCC-No. CRL 1573): 5000 cells in 60 μl per well of 384 well plate. (Greiner 781098, white plates) • Incubate 24 h at 37° C., 5% CO2 2nd Day: Induction (Substance Testing):
In general the dilution steeps are 1:3 a) Add 8 μl of 10 mM stock solution of compound to 72 μl DMSO b) dilute 9×1:3 (always 30 μl to 60 μl DMSO) in this DMSO dilution row (results in 10 wells with concentrations from 1000 μM to 0.06 μM) c) dilute each concentration 1: 4.8 (10 μl compound dilution to 38 μl medium) […]

Row | Structure (SMILES) | inhibition at 1 µM (HER-2) | IC50 (HEK293 cells) | Percent inhibition of HER2-phosphorylation (compound concentration 1 μM) (HER-2)
1 | O=C(Nc1ccc(OC(F)(F)F)cc1)c1csc(COc2ccc(CCCCn3ccnn3)cc2)n1 [Example 43, 2-[4-(4-[1,2,3]Triazol-1-yl-butyl)-phenoxymethyl]-thiazole-4-carboxylic acid (4-trifluoromethoxy-phenyl)-amide] | > 80% | 500 to 3000 nM | –
2 | O=C(Nc1ccc(SC(F)(F)F)cc1)c1coc(COc2ccc(CCCCn3ccnn3)cc2)n1 [Example 11, 2-[4-(4-[1,2,3]Triazol-1-yl-butyl)-phenoxymethyl]-oxazole-4-carboxylic acid (4-trifluoro-methylsulfanyl-phenyl)-amide] | – | – | 69%
3 | Cc1ccc(NC(=O)c2coc(COc3ccc(CCCCn4ccnn4)cc3)n2)cc1F [Example 36, 2-[4-(4-[1,2,3]Triazol-1-yl-butyl)-phenoxymethyl]-oxazole-4-carboxylic acid (3-fluoro-4-methyl-phenyl)-amide] | 70 to 80% | 5 to 500 nM | –
4 | O=C(Nc1ccc(C(F)(F)F)cc1)c1csc(COc2ccc(CCCCn3ccnn3)cc2)n1 [Example 41, 2-[4-(4-[1,2,3]Triazol-1-yl-butyl)-phenoxymethyl]-thiazole-4-carboxylic acid (4-trifluoromethyl-phenyl)-amide] | > 80% | 5 to 500 nM | –
5 | FC(F)(F)c1ccc(C=Cc2nc(COc3ccc(CCCCn4ccnn4)cc3)co2)cc1 [reference compound, 1-[4-(4-{2-[2-(4-Trifluoromethyl-phenyl)-vinyl]-oxazol-4-ylmethoxy}-phenyl)-butyl]-1H-[1,2,3]triazole, reference compound] | 52% | – | –
6 | CN(C(=O)c1coc(COc2ccc(CCCCn3ccnn3)cc2)n1)c1ccc(Cl)cc1 [Example 2, 2-[4-(4-[1,2,3]Triazol-1-yl-butyl)-phenoxymethyl]-oxazole-4-carboxylic acid (4-chloro-phenyl)-methyl-amide] | 55 to 70% | – | –
7 | O=C(Nc1nc(COc2ccc(CCCCn3ccnn3)cc2)cs1)c1ccc(Cl)cc1 [Example 52-5, 4-Chloro-N-{4-[4-(4-[1,2,3]triazol-1-yl-butyl)-phenoxymethyl]-thiazol-2-yl}-benzamide] | 70 to 80% | 5 to 500 nM | –
8 | O=C(Nc1ccc(OC(F)(F)F)cc1)c1coc(COc2ccc(CCCCn3ccnn3)cc2)n1 [Example 10, 2-[4-(4-[1,2,3]Triazol-1-yl-butyl)-phenoxymethyl]-oxazole-4-carboxylic acid (4-trifluoro-methoxy-phenyl)-amide] | – | – | 75%
9 | O=C(Nc1ccc(OC(F)F)cc1)c1coc(COc2ccc(CCCCn3ccnn3)cc2)n1 [Example 22, 2-[4-(4-[1,2,3]Triazol-1-yl-butyl)-phenoxymethyl]-oxazole-4-carboxylic acid (4-difluoromethoxy-phenyl)-amide] | 55 to 70% | – | –
10 | O=C(Nc1ccc(Cl)cc1F)c1coc(COc2ccc(CCCCn3ccnn3)cc2)n1 [Example 14, 2-[4-(4-[1,2,3]Triazol-1-yl-butyl)-phenoxymethyl]-oxazole-4-carboxylic acid (4-chloro-2-fluoro-phenyl)-amide] | 72% | 500 to 3000 nM | –
11 | CC(C)(C)c1ccc(C(=O)Nc2nc(COc3ccc(CCCCn4ccnn4)cc3)cs2)cc1 [Example 52-21, 4-tert-Butyl-N-{4-[4-(4-[1,2,3]triazol-1-yl-butyl)-phenoxymethyl]-thiazol-2-yl}-benzamide] | > 80% | 5 to 500 nM | –
12 | O=C(Nc1ccc(OC(F)(F)F)cc1)c1nc(COc2ccc(CCCCn3ccnn3)cc2)cs1 [Example 39, 4-[4-(4-[1,2,3]Triazol-1-yl-butyl)-phenoxymethyl]-thiazole-2-carboxylic acid (4-trifluoromethoxy-phenyl)-amide] | 87% | 5 to 500 nM | –
13 | COc1ccc(NC(=O)c2coc(COc3ccc(CCCCn4ccnn4)cc3)n2)cc1 [Example 37, 2-[4-(4-[1,2,3]Triazol-1-yl-butyl)-phenoxymethyl]-oxazole-4-carboxylic acid (4-methoxy-phenyl)-amide] | 70 to 80% | – | –
14 | O=C(Nc1ccc(C(F)(F)F)cc1)c1coc(COc2ccc(CCCCn3ccnn3)cc2)n1 [Example 13, 2-[4-(4-[1,2,3]Triazol-1-yl-butyl)-phenoxymethyl]-oxazole-4-carboxylic acid (4-trifluoromethyl-phenyl)-amide] | > 80% | 5 to 500 nM | –
15 | O=C(Nc1cc(F)cc(F)c1)c1coc(COc2ccc(CCCCn3ccnn3)cc2)n1 [Example 5, 2-[4-(4-[1,2,3]Triazol-1-yl-butyl)-phenoxymethyl]-oxazole-4-carboxylic acid (3,5-difluoro-phenyl)-amide] | – | 5 to 500 nM | –
16 | O=C(Nc1ccc(Cl)cc1)c1coc(COc2ccc(CCCCn3ccnn3)cc2)n1 [Example 6, 2-[4-(4-[1,2,3]Triazol-1-yl-butyl)-phenoxymethyl]-oxazole-4-carboxylic acid (4-chloro-phenyl)-amide] | – | 500 to 3000 nM | –
17 | CN(C(=O)c1coc(COc2ccc(CCCCn3ccnn3)cc2)n1)c1ccc(OC(F)(F)F)cc1 [Example 30, 2-[4-(4-[1,2,3]Triazol-1-yl-butyl)-phenoxymethyl]-oxazole-4-carboxylic acid methyl-(4-trifluoromethoxy-phenyl)-amide] | – | 5 to 500 nM | –
18 | Cc1cc(OCc2nc(C(=O)Nc3cccc(Cl)c3)cs2)ccc1CCCCn1ccnn1 [Example 51, 2-[3-Methyl-4-(4-[1,2,3]triazol-1-yl-butyl)-phenoxymethyl]-thiazole-4-carboxylic acid (3-chloro-phenyl)-amide] | – | 5 to 500 nM | –
19 | O=C(Nc1nc(COc2ccc(CCCCn3ccnn3)cc2)cs1)c1ccc(F)c(Cl)c1 [Example 52-19, 3-Chloro-4-fluoro-N-{4-[4-(4-[1,2,3]triazol-1-yl-butyl)-phenoxymethyl]-thiazol-2-yl}-benzamide] | – | 5 to 500 nM | –
20 | CSc1ccc(NC(=O)c2coc(COc3ccc(CCCCn4ccnn4)cc3)n2)cc1 [Example 24, 2-[4-(4-[1,2,3]Triazol-1-yl-butyl)-phenoxymethyl]-oxazole-4-carboxylic acid (4-methylsulfanyl-phenyl)-amide] | – | 1060 nM | –
21 | O=C(Nc1nc(COc2ccc(CCCCn3ccnn3)cc2)cs1)c1ccc(OC(F)(F)F)cc1 [Example 52-4, N-{4-[4-(4-[1,2,3]Triazol-1-yl-butyl)-phenoxymethyl]-thiazol-2-yl}-4-trifluoromethoxy-benzamide] | – | 5 to 500 nM | –
